Data as given in PMC9065678, “BI 1015550 is a PDE4B Inhibitor and a Clinical Drug Candidate for the Oral Treatment of Idiopathic Pulmonary Fibrosis” (Frontiers in Pharmacology, 2022).

Assays:
[1] = test system: LPS-stimulated IL-6 release; assay: LPS-stimulated IL-6 release in rat whole blood; type: cell-based; settings: high concentrations
Method: Heparinized whole blood was collected from the Aorta abdominalis of WI (Han) male rats (Charles River Laboratories, Sulzfeld, Germany) and from healthy male human donors, and treated with 1 µL (rat) or 2.5 µL (human) of BI 1015550 or vehicle [final DMSO concentration 0.5% (v/v)]. Final assay volumes were 200 μL (rat) and 500 μL (human). After incubation for 30 min at 37°C, 95% humidity, and 5% CO2, cultures were treated with LPS [final concentration 10 µg/mL (rat), 0.1 µg/mL (human)] or saline. After 7 h, plates were centrifuged at 3.200 × g at 4°C for 10 min and plasma was used for cytokine measurement. Meso Scale Discovery (MSD) (Rockville, MD, United States) rat and human pro-inflammatory panels were used for detection of TNF-α and IL-6 in rat plasma [diluted 1:2 (v/v)]) and human plasma [negative control undiluted, other samples diluted 1:200 (v/v)] according to the manufacturer’s instructions.

[2] = test system: LPS-induced lung neutrophil influx; assay: LPS-induced lung neutrophil influx in male Wistar rats; type: in vivo, rat; settings: oral, data not shown
From the text: Compared with other animal species used to study emesis induction by PDE4 inhibitors, like ferrets, dogs, minipigs, or monkeys, Suncus murinus allows the testing of a sufficient number of animals to provide a high statistical power. […] Male Suncus murinus (weight 50–55 g) from Boehringer Ingelheim (Biberach an der Riss, Germany) or male Wistar rats (200–250 g, Charles River), eight animals per group, were used. […] For this purpose, animals in the positive control and treatment groups were put into a circular Plexiglas chamber with 16 pie-like compartments for one animal each, and were consecutively exposed to nebulized LPS for 30 min. The LPS solution used for nebulization contained 1 mg/mL LPS in phosphate-buffered saline (PBS). Nebulization was performed with the commercially available PARI Master® nebulizer with a PARI Master® LL adapter (Pari GmbH, Starnberg, Germany). 4 h after LPS exposure, the animals were anesthetized and euthanized by cervical dislocation. After sacrifice, the trachea was cannulated and bronchoalveolar lavage was performed by instilling and re-aspirating two-times 1 mL (Suncus murinus) or 5 mL (rat) lavage buffer (PBS +2% bovine serum albumin). BALF volumes were recorded manually. Determination of neutrophil numbers in BALF was performed using a blood hemacytometer (Sysmex XT-1800i, Kobe, Japan).

[O-][S+]1CCc2nc(N3CCC(c4ncc(Cl)cn4)CC3)nc(NC3(CO)CCC3)c21 (centres unmarked) [BI 1015550]
Increase of IL-6 compared with LPS-treated samples without PDE4 inhibitor [1]: fourfold
ED50 LPS-induced lung neutrophil influx [2]: 0.1 mg/kg
